Publication PMC5753767 (Bioorganic & medicinal chemistry letters, 2017)
“Also recorded” adds a separate entry of the source.

Legend:
P. falciparum Dd2 = assay type: cell-based, Plasmodium falciparum; conditions: chloroquine-resistant Dd2 strain of P. falciparum
Caco-2 cancer cell line = conditions: cited from earlier work
A2780 ovarian cells = assay: Antiproliferative activity against A2780 ovarian cells; assay type: cell-based
HT-29 cancer cell line = conditions: cited from earlier work

Row | Structure (SMILES) | Antiplasmodial activity (in words) (P. falciparum Dd2) | IC50 (Caco-2 cancer cell line; read-out: Cytotoxicity IC50 Caco-2, Caco-2 cancer cell line) | Activity against human A2780 cells (in words) (A2780 ovarian cells) | IC50 (HT-29 cancer cell line; read-out: Cytotoxicity IC50 HT-29, HT-29 cancer cell line) | Cytotoxicity IC50 Caco-2 (Caco-2 cancer cell line) | Cytotoxicity IC50 HT-29 (HT-29 cancer cell line)
1 | CC(=O)O[C@@H]1CC=C2CCN3Cc4cc5c(cc4[C@H]1[C@@H]23)OCO5 [Compound 5, acetylcaranine] | strong antiplasmodial activity; also recorded: moderate to good antiplasmodial activity | 29.5 µM | lack of activity | 19.2 µM | – | –
2 | COC1=CC(=O)[C@@]23CCN(Cc4c2cc2c(c4OC)OCO2)[C@@H]3C1 [Compound 2, distichamine] | little inhibitory activity | – | – | – | – | –
3 | COc1c2c(cc3c1OCO3)[C@]13C=C[C@H](OC)C[C@H]1[N@](C2)C[C@H]3O [Compound 4, ambelline] | moderate to good antiplasmodial activity | – | lack of activity | – | – | –
4 | COc1c2c(cc3c1OCO3)[C@]13C=C[C@H](OC)C[C@H]1[N@](C2)C[C@H]3OC(C)=O [Compound 3, 11-O-acetylambelline] | – | – | – | – | inactive | inactive
